The values that follow come from publication PMC9268560, “Design, Synthesis, In Silico and In Vitro Studies of New Immunomodulatory Anticancer Nicotinamide Derivatives Targeting VEGFR-2” (Molecules, 2022).

Read-outs that look alike come from different tables or passages of the source.

For one data set, the system named is HepG2. Briefly: In vitro anti-proliferative activity (MTT assay), HepG2. Conditions: for Selectivity index (SI) (HepG2): cytotoxicity against Vero cells/cytotoxicity against HepG2. On the technique in general: Formazan colour is commonly taken as a measure of viable cells.
The next data set relates to HCT-116. Put plainly: In vitro anti-proliferative activity (MTT assay), HCT-116. Conditions: for Selectivity index (SI) (HCT-116): Cytotoxicity against Vero cells/cytotoxicity against HCT-116.
The target of another data set is human VEGFR-2 (Homo sapiens, UniProt P35968). Briefly: In vitro VEGFR-2 enzyme inhibition assay (Human VEGFR-2 ELISA kit). Background: In an ELISA, binding on a coated surface is turned into a signal by an enzyme label.
human VEGFR-2, sequence (P35968 20-1356): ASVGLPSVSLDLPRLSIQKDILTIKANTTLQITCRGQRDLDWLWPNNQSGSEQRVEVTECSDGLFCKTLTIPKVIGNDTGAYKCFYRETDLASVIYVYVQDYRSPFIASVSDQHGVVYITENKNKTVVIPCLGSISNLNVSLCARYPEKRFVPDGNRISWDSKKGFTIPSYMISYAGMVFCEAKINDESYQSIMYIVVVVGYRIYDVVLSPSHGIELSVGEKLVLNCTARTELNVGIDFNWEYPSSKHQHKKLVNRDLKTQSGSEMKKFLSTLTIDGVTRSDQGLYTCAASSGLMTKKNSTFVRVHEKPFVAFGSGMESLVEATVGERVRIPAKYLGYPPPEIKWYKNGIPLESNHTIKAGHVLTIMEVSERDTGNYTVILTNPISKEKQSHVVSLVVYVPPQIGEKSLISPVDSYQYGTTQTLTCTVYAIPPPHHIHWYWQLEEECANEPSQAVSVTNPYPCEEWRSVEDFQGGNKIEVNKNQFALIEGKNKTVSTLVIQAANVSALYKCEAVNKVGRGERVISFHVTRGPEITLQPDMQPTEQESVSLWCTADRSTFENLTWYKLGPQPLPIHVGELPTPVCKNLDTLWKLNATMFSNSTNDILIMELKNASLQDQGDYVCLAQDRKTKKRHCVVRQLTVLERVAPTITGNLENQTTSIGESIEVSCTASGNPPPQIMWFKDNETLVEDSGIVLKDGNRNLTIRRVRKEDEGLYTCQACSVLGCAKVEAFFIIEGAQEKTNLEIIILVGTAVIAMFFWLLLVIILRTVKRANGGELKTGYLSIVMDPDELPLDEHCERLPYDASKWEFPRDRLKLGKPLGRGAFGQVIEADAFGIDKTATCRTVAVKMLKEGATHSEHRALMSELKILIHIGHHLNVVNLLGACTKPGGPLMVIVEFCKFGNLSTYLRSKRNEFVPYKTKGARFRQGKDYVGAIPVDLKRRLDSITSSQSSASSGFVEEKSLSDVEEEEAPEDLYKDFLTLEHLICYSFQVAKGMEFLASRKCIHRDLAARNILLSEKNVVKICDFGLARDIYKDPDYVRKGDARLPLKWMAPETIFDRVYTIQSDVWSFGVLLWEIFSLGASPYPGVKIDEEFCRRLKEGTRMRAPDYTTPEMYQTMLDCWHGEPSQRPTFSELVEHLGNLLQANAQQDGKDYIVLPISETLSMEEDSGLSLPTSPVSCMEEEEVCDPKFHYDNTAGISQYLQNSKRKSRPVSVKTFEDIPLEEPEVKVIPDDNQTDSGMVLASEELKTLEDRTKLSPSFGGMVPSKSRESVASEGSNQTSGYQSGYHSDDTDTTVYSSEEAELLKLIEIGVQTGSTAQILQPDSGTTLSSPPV
The nature of data set [1]: In vitro viability test (MTT) on non-cancerous Vero cell lines. The class given is cell-based. Particulars: African green monkey, Vero cells (non-cancerous), non-cancerous model, read-out: Cytotoxicity Against Vero Cell Lines (IC50). From the text:
(§1) An in-vitro viability test was used to investigate the safety patterns of the tested compounds at different concentrations. The Vero cell lines were used as a non-cancerous model to investigate the safety of the targeted compounds. […] Such values are very high in comparison to the corresponding values on the cancer cell lines, which reflect the high in vitro safety profiles of the tested members towards the examined non-cancerous cell lines (Table 2).

The subject of a further data set is Bax. Put plainly: Bax expression level in treated HCT-116 cells (qRT-PCR). Conditions: HCT-116, 5.4 µM, 24 h.
The next data set deals with caspase-8. Briefly: Caspase-8 expression level in treated HCT-116 cells (qRT-PCR). Conditions: HCT-116, 5.4 µM, 24 h. On the technique in general: Real-time PCR tracks product formation cycle by cycle.
The subject of data set [2] is HCT-116 cells. Briefly: Flow cytometry analysis for apoptosis (Annexin V and PI double staining). The format is cell-based, human. Particulars: HCT-116, 5.4 µM, 24 h.
The subject of data set [3] is HCT-116 cells. Briefly: Flow cytometry analysis for cell cycle (PI staining). The format is cell-based, human. Conditions: HCT-116, 5.4 µM, 24 h.
Another data set has as its system Bcl-2. Put plainly: Bcl-2 expression level in treated HCT-116 cells (qRT-PCR). Particulars: HCT-116, 5.4 µM, 24 h.
The next data set has as its system TNF-α. Briefly: TNF-α level in treated HCT-116 cells (qRT-PCR). The format is cell-based. Conditions: Homo sapiens; HCT-116, 5.4 µM, 24 h; control 82.47.
The test system of a further data set is IL-6. Briefly: IL-6 level in treated HCT-116 cells (qRT-PCR). The class given is cell-based, human. Particulars: HCT-116, 5.4 µM, 24 h.
The next data set concerns Vero cell lines. Briefly: In vitro viability test (MTT) on non-cancerous Vero cell lines. The format is cell-based. Conditions: non-cancerous model, read-out: Cytotoxicity Against Vero Cell Lines (IC50).
Source text: as §1

Setting [4] is: Homo sapiens, HepG2, read-out: Cytotoxicity IC50 HepG2.
[5] abbreviates: Homo sapiens, HCT-116, read-out: Cytotoxicity IC50 HCT-116.

By IC50 is commonly meant the midpoint of a concentration-inhibition curve. One may read the inhibition as the change of the read-out against control, counted positive when it falls.

For the compound `O=C(N/N=C/c1ccc(Cl)cc1Cl)c1ccc(NC(=O)c2cccnc2)cc1` [Compound 6, (E)-N-(4-(2-(2,4-Dichlorobenzylidene)hydrazine-1-carbonyl)phenyl)-nicotinamide], the IC50 in the data set with HepG2 (setting [4]) is 16.5 ± 0.057 µM; with HCT-116 (setting [5]), 17.8 ± 0.059 µM; against human VEGFR-2 it was 0.172 ± 0.0102 µM; in data set [1], 84.7 µM. Further, the “Selectivity index (SI) (HepG2)” value with HepG2 was determined as 5.13. The “Selectivity index (SI) (HCT-116)” value in the data set with HCT-116 was determined as 4.76.
As to `COc1ccc(/C=N/NC(=O)c2ccc(NC(=O)c3cccnc3)cc2)cc1OC` [Compound 7, (E)-N-(4-(2-(3,4-Dimethoxybenzylidene)hydrazine-1-carbonyl)phenyl)-nicotinamide], the IC50 was determined as 18.8 ± 0.061 µM with HepG2 (setting [4]), 19.2 ± 0.062 µM with HCT-116 (setting [5]), 0.113 ± 0.00723 µM against human VEGFR-2 and 128 µM in data set [1]. The “Selectivity index (SI) (HepG2)” value in the data set on HepG2 worked out at 6.80. Further, the “Selectivity index (SI) (HCT-116)” value in the data set with HCT-116 is reported as 6.66.
Regarding `CN(C)c1ccc(/C=C/C=N/NC(=O)c2ccc(NC(=O)c3cccnc3)cc2)cc1` [Compound 8, N-(4-(2-((1E,2E)-3-(4-(Dimethylamino)phenyl)allylidene)hydrazine-1-carbonyl)phenyl)nicotinamide], the IC50 was 7.1 ± 0.03 µM with HepG2 (setting [4]), 5.4 ± 0.02 µM in the data set with HCT-116 (setting [5]), 0.077 ± 0.00425 µM at human VEGFR-2 and 85.2 µM in data set [1]. Further, the “Selectivity index (SI) (HepG2)” value in the data set with HepG2 is 12.01. Further, the “Increase in Bax level vs control cells” value with Bax is 9.2 fold. This compound also gave a Bax expression level in the data set with Bax (control 42.19) of 387.26 pg/mL. Moreover, the “Increase in caspase-8 level vs control cells” value in the data set with caspase-8 is listed as 9.4 fold. The compound also gave a Caspase-8 expression level in the data set with caspase-8 (control 50.317) of 472.3 pg/mL. The “Increase in total apoptosis vs control” value in the data set with HCT-116 cells [2] amounted to 6.5 fold. This compound also displayed a Necrosis in the data set with HCT-116 cells [2] (control 0.62) of 1.85%. Further, in the data set with HCT-116 cells [2] (control 0.7), the “Apoptosis Early” value came out at 3.74%. Further, the “Apoptosis Late” value in the data set with HCT-116 cells [2] (control 1.73) came out at 14.23%. Moreover, in the data set with HCT-116 cells [2] (control 3.05), the “Apoptosis Total” value was determined as 19.82%. Besides, in the data set with HCT-116, the “Selectivity index (SI) (HCT-116)” value turned out to be 15.79. Further, the “Augmentation of G0–G1 phase vs control” value with HCT-116 cells [3] is 1.42 fold. In addition, the “Decline of cell population at G2/M phase vs control” value with HCT-116 cells [3] is reported as 2.11 fold. Also, in the data set with HCT-116 cells [3] (control 27.29), the “Cell Cycle Distribution %G2-M” value stood at 12.91%. The “Cell Cycle Distribution % S” value with HCT-116 cells [3] (control 33.75) is listed as 31.47%. Moreover, the “Cell Cycle Distribution %G0-G1” value with HCT-116 cells [3] (control 38.96) is listed as 55.62%. Besides, in the data set on HCT-116 cells [3] (control printed 19.82), the “Cell Cycle Distribution %Pre-G1” value was found to be 3.05%. For the same compound, the “Decrease in Bcl-2 level vs control cells” value in the data set on Bcl-2 worked out at 3 fold. The compound further showed a Bcl-2 expression level in the data set with Bcl-2 (control 5.603) of 1.844 pg/mL. Moreover, the inhibition at 5.4 µM in the data set on TNF-α was 92.4%; in the data set on IL-6 (Homo sapiens, control 93.15), 94.1%. Moreover, the “Effect on the level of IL-6 (in words)” value with IL-6 was “non-significant reduction”.
As for `CC(=NNC(N)=S)c1ccc(NC(=O)c2cccnc2)cc1` [Compound 11, N-(4-(1-(2-Carbamothioylhydrazono)ethyl)phenyl)nicotinamide], the IC50 is 20.3 ± 0.064 µM in the data set with HepG2 (setting [4]), 25.07 ± 0.07 µM with HCT-116 (setting [5]), 0.0834 ± 0.00553 µM on human VEGFR-2 and 105 µM in data set [1]. Besides, the “Selectivity index (SI) (HepG2)” value in the data set with HepG2 is 5.19. For the same compound, the “Selectivity index (SI) (HCT-116)” value in the data set with HCT-116 was 4.20.
In the case of `CNC(=O)c1cc(Oc2ccc(NC(=O)Nc3ccc(Cl)c(C(F)(F)F)c3)cc2)ccn1` [Sorafenib, sorafenib, reference compound], the IC50 in the data set on HepG2 (setting [4]) worked out at 7.4 ± 0.235 µM; in the data set on HCT-116 (setting [5]), 9.3 ± 0.201 µM.
On to “(E)-N-(4-(1-(2-(2,6-Dinitrophenyl)hydrazono)ethyl)phenyl)nicotinamide [Compound 12]”, for which the “Selectivity index (SI) (HepG2)” value in the data set on HepG2 stood at 5.45. Also, the IC50 in the data set with HepG2 (read-out: Cytotoxicity IC50 HepG2, MTT, mean ± S.D. of three separate experiments) turned out to be 17.5 ± 0.058 µM; with HCT-116 (read-out: Cytotoxicity IC50 HCT-116, MTT, mean ± S.D. of three separate experiments), 18.2 ± 0.06 µM; at human VEGFR-2 (read-out: VEGFR-2 IC50, mean ± S.D. of three separate experiments) it was 0.115 ± 0.00733 µM; in the data set with Vero cell lines it was 95.4 µM. The “Selectivity index (SI) (HCT-116)” value with HCT-116 was determined as 5.24.
